Test results as given in patent publication US12366579B2, “Sulfur-heterocycle exchange chemistry and uses thereof” (University of Virginia Patent Foundation, priority 2019, dated 2025).

Key:
EDC3 = EDC3 (Homo sapiens, UniProt Q96F86); test: Chemical proteomics analysis of EDC3 using EKT-231 and HHS-465; assay type: binding; conditions: FIG. 46B
From the text: FIGS. 46A and 46B: Inhibition of mRNA decapping protein 3 (EDC3) Y475 by EKT-231. FIG. 46A is a schematic drawing of the chemical structure of EKT-231. FIG. 46B is a series of graphs showing the chemical proteomics analysis of EDC3 using EKT-231 and HHS-465.
In addition, SuTEx fragment EKT231 (see FIG. 46A) modifies EDC3 at tyrosine 475.

purified DPP3 = molecular target: T1, purified DPP3 (Homo sapiens, UniProt Q9NY33); test: DPP3 biochemical substrate assay (Arg-Arg β-naphthylamide peptidase assay)
T1 sequence (Q9NY33 1-737): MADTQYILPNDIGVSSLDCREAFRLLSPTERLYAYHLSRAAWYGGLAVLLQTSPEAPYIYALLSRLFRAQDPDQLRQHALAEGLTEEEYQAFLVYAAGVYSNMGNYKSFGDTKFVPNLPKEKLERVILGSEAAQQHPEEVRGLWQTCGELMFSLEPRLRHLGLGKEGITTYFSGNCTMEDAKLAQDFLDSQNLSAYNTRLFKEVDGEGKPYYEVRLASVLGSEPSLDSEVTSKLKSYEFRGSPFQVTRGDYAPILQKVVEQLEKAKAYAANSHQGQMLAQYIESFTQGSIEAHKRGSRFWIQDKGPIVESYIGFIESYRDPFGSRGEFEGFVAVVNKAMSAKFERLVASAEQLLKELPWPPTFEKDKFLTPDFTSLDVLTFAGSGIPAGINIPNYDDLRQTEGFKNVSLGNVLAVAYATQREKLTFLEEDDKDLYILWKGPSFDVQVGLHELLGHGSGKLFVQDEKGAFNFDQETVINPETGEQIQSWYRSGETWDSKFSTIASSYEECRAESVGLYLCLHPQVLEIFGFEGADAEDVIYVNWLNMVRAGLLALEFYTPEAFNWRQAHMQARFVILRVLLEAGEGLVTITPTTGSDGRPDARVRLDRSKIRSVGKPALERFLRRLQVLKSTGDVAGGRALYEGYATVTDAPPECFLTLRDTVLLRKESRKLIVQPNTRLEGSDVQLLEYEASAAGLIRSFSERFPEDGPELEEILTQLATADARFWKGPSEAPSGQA
Experimental: DPP3 Biochemical Substrate Assay
Substrate assays were performed using purified DPP3 protein diluted to 5 ng/μL in assay buffer. DPP3 samples (10 μl) were diluted to 85 μl with assay buffer and transferred to a black 96-well plate. Samples were treated with a 50× stock of SuTEx-fragment at indication concentration for 30 min at 37° C. A stock solution of DPP3 substrate (Arg-Arg β-naphthylamide trihydrochloride, 0.5 mM: Sigma-Aldrich. St, Louis, Missouri, United States of America) was diluted to 100 μM in assay buffer. Substrate solution (5 μl) was added to each sample. Samples were mixed briefly by shaking and reaction monitored in kinetic mode by measuring fluorescence at 450 nm for 10 min on a BMG Labtech CLARIOstar plate reader (BMG Labtech, Cary, North Carolina, United States of America).

human DPP3 (hDPP3) = molecular target: T2, human DPP3 (hDPP3) (Homo sapiens, UniProt Q9NY33); test: Gel-based competitive chemical proteomic screen with HHS-482, recombinant hDPP3-HEK293T soluble proteomes; assay type: binding; conditions: 50 μM fragment, 37° C., 30 min
T2 construct: FLAG (C); host or cells: HEK293T, transient transfection; soluble proteome used unpurified
T2 sequence (Q9NY33 1-737): T1 sequence (Q9NY33 1-737)
Experimental: Gel-Based Chemical Proteomic Assay
Cell pellets were lysed in PBS and fractionated (100,000×g, 45 min, 4° C.) to generate soluble and membrane fractions. Protein concentrations were determined using Bio-Rad DC protein assay (Bio-Rad Laboratories, Inc., Hercules, California, United States of America), and adjusted to 1 mgml^−1 in PBS. Proteome samples (49 μl aliquots) were treated with DMSO vehicle or indicated concentration of SuTEx fragment (1 μL, 50× stock in DMSO) for 30 min at 37° C. Samples were then treated with HHS-482 probe (1 μL, 2.5 mM stock in DMSO) for 30 min at 37° C. Probe labeled samples were conjugated to rhodamine-azide (1 μL, 1.25 mM stock; final concentration of 25 μM) by copper-catalyzed azide-alkyne cycloadditions (CuAAC) for 1 h at room temperature followed by SDS-PAGE and in-gel fluorescence scanning as previously described^57.

DPP3 Y417 = molecular target: T3, DPP3 Y417 (Homo sapiens, UniProt Q9NY33); test: Quantitative LC-MS chemical proteomics of recombinant human DPP3-HEK293T soluble proteome; assay type: binding; conditions: 50 μM fragment, 37° C., 30 min
T3 construct: FLAG (C); host or cells: HEK293T, transient transfection; soluble proteome used unpurified
Experimental: Preparation of SILAC Proteomes for Liquid Chromatography-Tandem Mass Spectrometry ([…]) Analysis
(§1) Heavy and light proteomes (432 μl of each) were diluted to 2.3 mg ml^−1 in PBS and sample aliquots (432 μl) were treated with SuTEx fragment at the indicated concentrations (5 μl, 100× stock in DMSO), mixed gently and incubated for 30 min at 37° C. Samples were then treated with HHS-482 (5 μL, 5 mM stock in DMSO) for 30 min at 37° C. Probe-modified proteomes were conjugated to desthiobiotin-PEG3-azide followed by enrichment of probe-modified peptides for nano-electrospray ionization-LC-MS/MS analyses as previously described^57.
Identification of peptides and proteins from tandem mass spectrometry analyses was accomplished using bioinformatics software and quality control criteria as previously described^57.

DM93 soluble proteomes = test: Proteome-wide competitive chemical proteomics of SuTEx fragments vs HHS-482; assay type: binding, human; conditions: fragment 50 μM, 30 min, 37° C.
Experimental: as §1
The chemical proteomic method for functional tyrosine profiling^72 was tailored to investigate AG/LG effects on SuTEx fragment reactivity in complex proteomes. In brief, isotopically light and heavy soluble proteomes from DM93 melanoma cells cultured by stable isotopic labeling by amino acids in cell culture (SILAC^80) media were used for quantitative liquid chromatography-mass spectrometry (LC-MS) studies. Light and heavy DM93 proteomes were treated with dimethyl sulfoxide (DMSO) vehicle or SuTEx fragment (50 μM, 30 min, 37° C.), respectively, followed by labeling with the tyrosine-reactive probe HHS-482 described hereinabove (50 μM, 30 min, 37° C.) and copper-catalyzed azide-alkyne cycloaddition (CuAAC) conjugation of a desthiobiotin-azide enrichment tag. Proteomes were digested with trypsin protease, HHS-482-modified peptides enriched by avidin chromatography and analyzed by high-resolution LC-MS/MS and bioinformatics as described hereinabove.
To evaluate substituent effects on proteome activity, reactivity profiles of each respective SuTEx fragment were compared across >1500 total distinct HHS-482-modified tyrosine sites from >650 detected proteins. Fragments were screened across independent biological replicates (n=2-3) and high-quality tyrosine site annotations were identified by detection in at least a single biological replicate from each fragment dataset, probe-specific enrichment (HHS-482 probe/DMSO SILAC ratio (SR)>5), and quality control confidence criteria of ≥300 Byonic score^31, […] protein false discovery rate (FDR), and ≤5 ppm mass accuracy in order to minimize the potential for false positives^72. SILAC ratios (SR) from competitive studies (Light-DMSO/Heavy-fragment) were used to identify fragment-competed tyrosine residues as sites showing >75% reduction in enrichment by HHS-482 compared with DMSO vehicle control (i.e. liganded tyrosines, SR>4). In total, 305 liganded tyrosines on 213 distinct proteins were identified, corresponding to ˜30% and ˜44% of total quantified tyrosines and proteins, respectively. […]

YWHAE (Y49) = molecular target: T4, YWHAE (Y49) (Homo sapiens, UniProt P62258); test: Competitive chemical proteomics of SuTEx fragments vs HHS-482, YWHAE site; assay type: binding; conditions: fragment 50 μM, 30 min, 37° C.
T4 construct: endogenous in cells; host or cells: DM93 melanoma cells, soluble proteome (lysate)
Experimental: as §1
The chemical proteomic method for functional tyrosine profiling^72 was tailored to investigate AG/LG effects on SuTEx fragment reactivity in complex proteomes. In brief, isotopically light and heavy soluble proteomes from DM93 melanoma cells cultured by stable isotopic labeling by amino acids in cell culture (SILAC^80) media were used for quantitative liquid chromatography-mass spectrometry (LC-MS) studies. […] Proteomes were digested with trypsin protease, HHS-482-modified peptides enriched by avidin chromatography and analyzed by high-resolution LC-MS/MS and bioinformatics as described hereinabove.
To evaluate substituent effects on proteome activity, reactivity profiles of each respective SuTEx fragment were compared across >1500 total distinct HHS-482-modified tyrosine sites from >650 detected proteins. […]

T4 sequence (P62258 whole entry, the tested form may be a part): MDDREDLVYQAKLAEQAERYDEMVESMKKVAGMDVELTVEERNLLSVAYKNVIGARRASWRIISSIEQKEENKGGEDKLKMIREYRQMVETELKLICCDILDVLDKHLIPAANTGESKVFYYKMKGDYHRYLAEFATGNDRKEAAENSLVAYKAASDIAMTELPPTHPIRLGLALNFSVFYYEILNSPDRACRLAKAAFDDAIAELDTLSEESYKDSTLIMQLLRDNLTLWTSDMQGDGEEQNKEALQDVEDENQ
Chain of EDC3 (Q96F86 whole entry): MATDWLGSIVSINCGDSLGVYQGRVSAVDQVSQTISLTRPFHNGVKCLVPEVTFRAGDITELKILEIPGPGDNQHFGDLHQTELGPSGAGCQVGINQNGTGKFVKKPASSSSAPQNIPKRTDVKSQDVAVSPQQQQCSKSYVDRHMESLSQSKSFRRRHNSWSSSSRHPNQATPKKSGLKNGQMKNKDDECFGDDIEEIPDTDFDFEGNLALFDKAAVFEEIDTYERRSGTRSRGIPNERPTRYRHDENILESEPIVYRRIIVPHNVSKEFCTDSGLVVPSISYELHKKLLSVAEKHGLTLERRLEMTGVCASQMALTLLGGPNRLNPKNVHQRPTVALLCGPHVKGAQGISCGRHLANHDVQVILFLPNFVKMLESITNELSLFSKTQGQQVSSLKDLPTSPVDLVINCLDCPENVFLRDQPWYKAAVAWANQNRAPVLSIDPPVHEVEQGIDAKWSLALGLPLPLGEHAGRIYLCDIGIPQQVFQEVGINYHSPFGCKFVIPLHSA

SMILES | tyrosine residue of EDC3 modified (EDC3) | fold difference in potency against DPP3, JWB142 vs SuFEx-3 (purified DPP3; JWB142 more potent than SuFEx counterpart) [fold] | IC50 (purified DPP3; fragment pretreatment 30 min at 37° C., n=3, read-out: IC50, blockade of DPP3 catalytic (peptidase) activity) [µM] | blockade of DPP3 probe (HHS-482) labeling (human DPP3 (hDPP3)) [%] | SILAC ratio (SR), DPP3 Y417 (DPP3 Y417) | blockade of HHS-482 labeling of DPP3 Y417 (site liganded) (DPP3 Y417) [%] | liganded tyrosine frequency (SR>4) (DM93 soluble proteomes) [%] | SILAC ratio (SR) at tyrosine competed site YWHAE Y49 (YWHAE (Y49))
N#Cc1ccc(S(=O)(=O)n2cc(-c3cccc(Cl)c3)nn2)cc1 [EKT231] | 475 |  |  |  |  |  |  | 
COc1ccc(-c2ncn(S(=O)(=O)c3ccc(-c4ccccc4)cc3)n2)cc1 [JWB142, 1-([1,1′-Biphenyl]-4-ylsulfonyl)-3-(4-methoxyphenyl)-1H-1,2,4-triazole] |  | > 10 | 17 | ~50 | 2.4 | ~50 | < 0.1 | > 6
